Test results published in ChEMBL document CHEMBL4184156, “Repurposing Hsp90 inhibitors as antibiotics targeting histidine kinases” (Bioorg Med Chem Lett, 2017).

T1: Histidine protein kinase DivJ (Caulobacter vibrioides (strain ATCC 19089 / CB15) (Caulobactercrescentus)) (UniProt Q03228)
T1 sequence (whole entry): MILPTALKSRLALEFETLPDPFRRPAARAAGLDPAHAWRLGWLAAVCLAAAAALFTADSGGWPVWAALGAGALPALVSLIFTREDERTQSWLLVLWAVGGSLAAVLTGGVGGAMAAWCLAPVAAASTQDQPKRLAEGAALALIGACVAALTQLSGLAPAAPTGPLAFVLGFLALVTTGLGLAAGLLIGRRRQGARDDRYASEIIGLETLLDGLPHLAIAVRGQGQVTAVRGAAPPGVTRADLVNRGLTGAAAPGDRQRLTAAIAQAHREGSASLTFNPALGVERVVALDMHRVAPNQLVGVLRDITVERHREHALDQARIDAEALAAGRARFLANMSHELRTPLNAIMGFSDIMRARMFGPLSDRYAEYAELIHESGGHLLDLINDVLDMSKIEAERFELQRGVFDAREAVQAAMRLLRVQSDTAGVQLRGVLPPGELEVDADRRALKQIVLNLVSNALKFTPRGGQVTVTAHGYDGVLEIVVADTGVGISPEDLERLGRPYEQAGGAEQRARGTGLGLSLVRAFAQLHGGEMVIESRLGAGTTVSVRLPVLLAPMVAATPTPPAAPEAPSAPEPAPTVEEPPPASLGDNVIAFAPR

T2: Virulence sensor histidine kinase PhoQ (Salmonella typhimurium (strain LT2 / SGSC1412 / ATCC 700720)) (UniProt P0DM80)
T2 sequence (whole entry): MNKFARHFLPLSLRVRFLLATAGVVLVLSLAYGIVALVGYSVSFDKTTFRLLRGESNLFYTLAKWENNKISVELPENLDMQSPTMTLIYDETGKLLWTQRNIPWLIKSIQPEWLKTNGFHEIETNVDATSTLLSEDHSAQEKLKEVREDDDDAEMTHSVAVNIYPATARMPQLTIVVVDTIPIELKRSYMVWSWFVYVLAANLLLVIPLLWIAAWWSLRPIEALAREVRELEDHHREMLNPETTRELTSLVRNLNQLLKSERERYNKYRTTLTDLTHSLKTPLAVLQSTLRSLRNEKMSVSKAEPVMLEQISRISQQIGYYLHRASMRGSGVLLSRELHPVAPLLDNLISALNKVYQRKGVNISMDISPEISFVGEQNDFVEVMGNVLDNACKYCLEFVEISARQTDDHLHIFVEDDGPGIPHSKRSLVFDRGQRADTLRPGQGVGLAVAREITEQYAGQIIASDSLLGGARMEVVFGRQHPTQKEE

T3: Cell cycle histidine kinase CckA (Caulobacter vibrioides) (UniProt Q9X688)
T3 sequence (whole entry): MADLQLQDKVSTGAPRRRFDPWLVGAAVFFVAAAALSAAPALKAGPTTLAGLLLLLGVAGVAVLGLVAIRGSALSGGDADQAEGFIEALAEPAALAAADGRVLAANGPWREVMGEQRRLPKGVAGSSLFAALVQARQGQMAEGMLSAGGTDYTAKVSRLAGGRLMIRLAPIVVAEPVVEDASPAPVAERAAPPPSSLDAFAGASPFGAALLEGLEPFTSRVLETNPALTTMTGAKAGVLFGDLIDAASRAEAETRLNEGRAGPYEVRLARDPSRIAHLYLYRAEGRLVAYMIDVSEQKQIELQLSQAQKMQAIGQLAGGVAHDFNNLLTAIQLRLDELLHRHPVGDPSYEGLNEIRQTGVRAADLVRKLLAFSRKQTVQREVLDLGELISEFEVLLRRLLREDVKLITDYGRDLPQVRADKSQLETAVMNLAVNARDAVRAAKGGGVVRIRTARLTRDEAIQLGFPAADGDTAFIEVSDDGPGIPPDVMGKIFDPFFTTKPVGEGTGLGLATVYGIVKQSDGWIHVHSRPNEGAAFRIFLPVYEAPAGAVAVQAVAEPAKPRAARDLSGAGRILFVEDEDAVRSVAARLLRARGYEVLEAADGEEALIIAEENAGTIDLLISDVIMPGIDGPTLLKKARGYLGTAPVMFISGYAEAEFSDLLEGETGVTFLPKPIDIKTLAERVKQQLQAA

T4: Virulence sensor histidine kinase PhoQ (Salmonella typhimurium (strain LT2 / SGSC1412 / ATCC 700720), UniProt P0DM80)
T4 sequence (P0DM80 whole entry): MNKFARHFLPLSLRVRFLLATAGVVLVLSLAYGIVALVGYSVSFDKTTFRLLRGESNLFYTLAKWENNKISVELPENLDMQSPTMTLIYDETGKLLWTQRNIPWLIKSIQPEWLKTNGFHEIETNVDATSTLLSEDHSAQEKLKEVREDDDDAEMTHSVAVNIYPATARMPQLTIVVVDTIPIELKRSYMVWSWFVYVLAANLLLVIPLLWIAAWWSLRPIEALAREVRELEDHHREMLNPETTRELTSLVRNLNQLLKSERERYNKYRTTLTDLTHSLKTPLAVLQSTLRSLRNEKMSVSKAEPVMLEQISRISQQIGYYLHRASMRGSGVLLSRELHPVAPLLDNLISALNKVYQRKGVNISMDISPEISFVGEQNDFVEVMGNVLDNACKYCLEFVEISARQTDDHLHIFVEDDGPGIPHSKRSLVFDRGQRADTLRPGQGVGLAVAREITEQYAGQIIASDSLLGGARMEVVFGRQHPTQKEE

T5: Cell cycle histidine kinase CckA (Caulobacter vibrioides, UniProt Q9X688)
T5 sequence (Q9X688 whole entry): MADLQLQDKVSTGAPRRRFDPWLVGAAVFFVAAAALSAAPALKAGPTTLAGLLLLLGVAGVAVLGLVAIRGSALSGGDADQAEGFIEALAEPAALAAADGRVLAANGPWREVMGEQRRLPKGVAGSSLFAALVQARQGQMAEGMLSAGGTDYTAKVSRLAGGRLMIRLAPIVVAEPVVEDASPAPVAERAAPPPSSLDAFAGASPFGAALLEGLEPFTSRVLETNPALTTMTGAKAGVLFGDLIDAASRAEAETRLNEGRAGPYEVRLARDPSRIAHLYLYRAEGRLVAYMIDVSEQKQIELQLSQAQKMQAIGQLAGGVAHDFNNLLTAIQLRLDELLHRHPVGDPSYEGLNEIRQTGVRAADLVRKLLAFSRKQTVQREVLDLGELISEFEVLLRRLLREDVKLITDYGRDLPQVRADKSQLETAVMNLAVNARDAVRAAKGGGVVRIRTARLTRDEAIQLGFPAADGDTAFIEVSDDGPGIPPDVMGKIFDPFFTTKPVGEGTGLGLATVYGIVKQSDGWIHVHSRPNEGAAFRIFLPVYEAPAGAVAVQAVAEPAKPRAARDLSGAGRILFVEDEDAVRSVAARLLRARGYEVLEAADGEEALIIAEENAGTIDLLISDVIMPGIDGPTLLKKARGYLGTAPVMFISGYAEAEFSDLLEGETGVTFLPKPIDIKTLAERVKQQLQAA


Assays:
[1] = target: T1, Histidine protein kinase DivJ (Caulobacter vibrioides (strain ATCC 19089 / CB15) (Caulobactercrescentus)); assay: (§1) Inhibition of recombinant Caulobacter vibrioides N-terminal His6-tagged DHp-catalytic domain DivJ (188 to 585 residues) autophosphorylation expressed in Escherichia coli BL21(DE3) at 500 uM preincubated for 10 mins followed by [gamma-32P]-ATP addition after 15 mins by phosphotransferase dot blot assay relative to control; parameters: scale not given: the % may be the effect or the level left
[2] = tested on: Caulobacter vibrioides; assay: Antibacterial activity against Caulobacter crescentus NA1000 after 24 hrs by broth dilution method; assay type: functional; conditions: NA1000, 24 h
[3] = tested on: Escherichia coli; assay: Antibacterial activity against Escherichia coli DC2 after 24 hrs by broth dilution method; assay type: functional; conditions: DC2, 24 h
[4] = target: T2, Virulence sensor histidine kinase PhoQ (Salmonella typhimurium (strain LT2 / SGSC1412 / ATCC 700720)); assay: as §1, with “Salmonella typhimurium” for “Caulobacter vibrioides”, “His6-SUMO-tagged” for “His6-tagged”, “PhoQ (257” for “DivJ (188”, “487” for “585”, “30” for “15”; parameters: scale not given: the % may be the effect or the level left; conditions: Salmonella enterica subsp. enterica serovar Typhimurium
[5] = tested on: Bacillus subtilis; assay: Antibacterial activity against Bacillus subtilis YB886 after 24 hrs by broth dilution method; assay type: functional; conditions: YB886, 24 h
[6] = Hemolytic activity against sheep RBC at 0.5 mM after 30 mins relative to control; assay type: ADME, cell-based, Ovis aries, Erythrocyte; conditions: sheep red blood cells (erythrocytes), read-out: Activity
[7] = Inhibition of recombinant full length yeast N-terminal His-tagged Hsp90 expressed in Escherichia coli BL21 incubated overnight in presence of ATP by malachite green dye based assay; parameters: species or system Saccharomyces cerevisiae
[8] = target: T3, Cell cycle histidine kinase CckA (Caulobacter vibrioides); assay: Binding affinity to recombinant Caulobacter vibrioides cell cycle histidine kinase CckA delta 3 mutant DHp domain (190 to 562 residues) expressed in Escherichia coli assessed as change in metlting temperature at 30 uM after 2 mins by SYPRO orange dye based DSF assay
[9] = target: Cell cycle histidine kinase CckA (Caulobacter vibrioides, UniProt Q9X688); assay: Inhibition of recombinant Caulobacter vibrioides cell cycle histidine kinase CckA deltaTM mutant DHp domain (70 to 691 residues) expressed in Escherichia coli in presence of varying levels of ATP measured every 60 secs for 2 hrs by PK/LDH enzyme coupled assay
[10] = target: T4, Virulence sensor histidine kinase PhoQ; assay: Inhibition of recombinant Salmonella typhimurium N-terminal His6-SUMO-tagged DHp-catalytic domain PhoQ (257 to 487 residues) autophosphorylation expressed in Escherichia coli BL21 (DE3) preincubated for 10 mins followed by [gamma-32P]-ATP addition after 30 mins by phosphotransferase dot blot assay; parameters: species or system Salmonella enterica subsp. enterica serovar Typhimurium
[11] = target: T5, Cell cycle histidine kinase CckA; assay: Competitive inhibition of Caulobacter vibrioides full length wild type cell cycle histidine kinase CckA deltaTM Escherichia coli BL21-AI in presence of varying levels of ATP measured every 60 secs for 2 hrs by Lineweaver-Burk plot analysis
[12] = compound: COc1ccc(-c2c(C)n[nH]c2-c2cc(Cl)c(O)cc2O)cc1; assay: Competitive inhibition of Caulobacter vibrioides full length wild type Cell cycle histidine kinase CckA deltaTM expressed in Escherichia coli BL21-AI assessed as enzyme Km in presence of varying levels of ATP measured every 60 secs for 2 hrs by Lineweaver-Burk plot analysis

| Molecule | Activity [1] [%] | MIC [2] [µM] | MIC [3] [µM] | Activity [4] [%] | MIC [5] [µM] | hemolysis at 0.5 h, 500 µM [6] [%] | IC50 [7] [µM] | ΔTm [8] [°C] | IC50 [9] [µM] | IC50 [10] [µM] | Ki [11] [µM] | Km [12] [µM] |
| --- | --- | --- | --- | --- | --- | --- | --- | --- | --- | --- | --- | --- |
| C[C@@H]1C[C@H]2O[C@@H]2/C=C\C=C\C(=O)Cc2c(Cl)c(O)cc(O)c2C(=O)O1 [RADICICOL] | 123 | > 300 | > 300 | 86 | > 300 | 0 | 0.26 | 0.9 | 184 | – | – | – |
| COc1ccc(-c2c(-c3cc(Cl)c(O)cc3O)n[nH]c2C)cc1 | – | – | – | – | – | 3 | – | – | 12.3 to 14 | 238 | 3.8 | – |
| Cell cycle histidine kinase CckA (Caulobacter vibrioides), Q9X688 (protein) MADLQLQDKVSTGAPRRRFDPWLVGAAVFFVAAAALSAAPALKAGPTTLAGLLLLLGVAGVAVLGLVAIRGSALSGGDADQAEGFIEALAEPAALAAADGRVLAANGPWREVMGEQRRLPKGVAGSSLFAALVQARQGQMAEGMLSAGGTDYTAKVSRLAGGRLMIRLAPIVVAEPVVEDASPAPVAERAAPPPSSLDAFAGASPFGAALLEGLEPFTSRVLETNPALTTMTGAKAGVLFGDLIDAASRAEAETRLNEGRAGPYEVRLARDPSRIAHLYLYRAEGRLVAYMIDVSEQKQIELQLSQAQKMQAIGQLAGGVAHDFNNLLTAIQLRLDELLHRHPVGDPSYEGLNEIRQTGVRAADLVRKLLAFSRKQTVQREVLDLGELISEFEVLLRRLLREDVKLITDYGRDLPQVRADKSQLETAVMNLAVNARDAVRAAKGGGVVRIRTARLTRDEAIQLGFPAADGDTAFIEVSDDGPGIPPDVMGKIFDPFFTTKPVGEGTGLGLATVYGIVKQSDGWIHVHSRPNEGAAFRIFLPVYEAPAGAVAVQAVAEPAKPRAARDLSGAGRILFVEDEDAVRSVAARLLRARGYEVLEAADGEEALIIAEENAGTIDLLISDVIMPGIDGPTLLKKARGYLGTAPVMFISGYAEAEFSDLLEGETGVTFLPKPIDIKTLAERVKQQLQAA | – | – | – | – | – | – | – | – | – | – | – | 17.9 |
